Data reported in US11279733B2, “Peptide antibiotics” (priority 2017, dated 2022).
≈ marks a conversion by molar mass, not a printed value. Like-named read-outs stand apart in the source and are kept apart here. Starred links: 1 amine or outer side, 2 acyl side, 3 side chain; linkers in the order of their positions; H or OH if unused. Positions of bridges follow the written chain, without caps; N, C: chain ends. Non-standard residues stand in square brackets, D forms with d. Residues, ends and D or L forms follow the SMILES beside them. *: point of attachment. Decanoyl(3R-OH) = CCCCCCC[C@@H](O)CC(=O)*; NH(2-ClPh) = Clc1ccccc1N*; dDab = NCC[C@@H](N)C(=O)O; dDap = NC[C@@H](N)C(=O)O; Dab = NCC[C@H](N)C(=O)O; Dap = NC[C@H](N)C(=O)O; CO = O=C([*:1])[*:2]

Experiments:
A. baumannii GN_093 PmxR = system: A. baumannii GN_093 PmxR
How it was run: (§1)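 Mid-log cultures grown in Mueller Hinton broth at 37° C were tested by 2-fold broth microdilution at 5×10^5 CFU/mL final. Compounds were dissolved in water and tested over a final range of 32 to 0.015 μg/mL.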

E. coli ATCC 25922 = system: E. coli ATCC 25922
How it was run: as §1

[1] = system: K. pneumoniae ATCC 700603, MDR
How it was run: as §1

[2] = system: P. aeruginosa GN_043, PmxR
How it was run: as §1

[3] = system: S. aureus ATCC 25923, MSSA
How it was run: as §1

[4] = system: P. aeruginosa GN_105, PmxR
How it was run: as §1

[5] = system: K. pneumoniae ATCC BAA-2146, NDM-1 pos
How it was run: as §1

P. aeruginosa ATCC 27853 = system: P. aeruginosa ATCC 27853
How it was run: as §1

A. baumannii ATCC 19606 = system: A. baumannii ATCC 19606
How it was run: as §1

K. pneumoniae ATCC 13883 = system: K. pneumoniae ATCC 13883
How it was run: as §1

[6] = system: K. pneumoniae GN_102 PmxR
How it was run: as §1

[7] = system: K. pneumoniae GN_106, PmxR
How it was run: as §1

[8] = Cytotoxicity, resazurin assay, HEK293; conditions: human
How it was run: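 Cells were seeded at 4000 per well and allowed to attach for 24 h at 37 °C, 5% CO2, then exposed to compounds for 24 h. Resazurin (5 μM) was added for 2 h at 37 °C and fluorescence read at 560/590 nm. CC50 was derived by curve fitting of dose-dependent growth inhibition.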

| SMILES | MIC P. aeruginosa GN_043, PmxR ([2]; P. aeruginosa GN_043, PmxR) | CC50 at 24 h [8] | MIC A. baumannii GN_093 PmxR (A. baumannii GN_093 PmxR; GN 093 PmxR) | MIC E. coli ATCC 25922 (E. coli ATCC 25922; ATCC 25922) | MIC K. pneumoniae ATCC 700603, MDR ([1]; ATCC 700603) | MIC S. aureus ATCC 25923, MSSA ([3]; ATCC 25923) | MIC P. aeruginosa GN_105, PmxR ([4]; GN 105, PmxR) | MIC K. pneumoniae ATCC BAA-2146, NDM-1 pos ([5]; ATCC BAA-2146) | MIC P. aeruginosa ATCC 27853 (P. aeruginosa ATCC 27853; ATCC 27853) | MIC A. baumannii ATCC 19606 (A. baumannii ATCC 19606; ATCC 19606) | MIC K. pneumoniae ATCC 13883 (K. pneumoniae ATCC 13883; ATCC 13883) | MIC K. pneumoniae GN_102 PmxR ([6]; GN 102 PmxR) | MIC K. pneumoniae GN_106, PmxR ([7]; GN 106, PmxR) | further results |
| --- | --- | --- | --- | --- | --- | --- | --- | --- | --- | --- | --- | --- | --- | --- |
| CC(C)C[C@@H]1NC(=O)[C@H](CCN)NC(=O)[C@H](CCN)NC(=O)[C@H](CC(C)C)NC(=O)[C@@H](Cc2ccccc2)NC(=O)[C@H](CCN)NC(=O)[C@@H](NC(=O)[C@@H](CN)NC(=O)Nc2ccccc2Cl)CCNC1=O [compound 9188, 2-ClPh-NHCO-D-Dap-cyc[L-Dab-L-Dab-D-Phe-L-Leu-L-Dab-L-Dab-L-Leu]] ({NH(2-ClPh)-CO}-[dDap][Dab][Dab][dF]L[Dab][Dab]L; lactam 2-C) | >16 µg/mL | > 300 µM | – | – | – | – | – | – | – | – | – | – | – | MIC A. baumannii GN_093 PmxR (A. baumannii GN_093 PmxR; A. baumannii GN_093 PmxR): >16 µg/mL; MIC E. coli ATCC 25922 (E. coli ATCC 25922; E. coli ATCC 25922): 8 µg/mL (≈ 7.89 µM); MIC K. pneumoniae ATCC 700603, MDR ([1]; K. pneumoniae ATCC 700603, MDR): 8 µg/mL (≈ 7.89 µM); MIC S. aureus ATCC 25923, MSSA ([3]; S. aureus ATCC 25923, MSSA): >16 µg/mL; MIC P. aeruginosa GN_105, PmxR ([4]; P. aeruginosa GN_105, PmxR): >16 µg/mL; MIC K. pneumoniae ATCC BAA-2146, NDM-1 pos ([5]; K. pneumoniae ATCC BAA-2146, NDM-1 pos): 8 µg/mL (≈ 7.89 µM); MIC P. aeruginosa ATCC 27853 (P. aeruginosa ATCC 27853; P. aeruginosa ATCC 27853): 2 µg/mL (≈ 1.97 µM); MIC A. baumannii ATCC 19606 (A. baumannii ATCC 19606; A. baumannii ATCC 19606): >32 µg/mL; MIC K. pneumoniae ATCC 13883 (K. pneumoniae ATCC 13883; K. pneumoniae ATCC 13883): 16 µg/mL (≈ 15.8 µM); MIC K. pneumoniae GN_102 PmxR ([6]; K. pneumoniae GN_102 PmxR): >16 µg/mL; MIC K. pneumoniae GN_106, PmxR ([7]; K. pneumoniae GN_106, PmxR): >16 µg/mL |
| CCCCCCC[C@@H](O)CC(=O)NCC(=O)N[C@H]1CCNC(=O)[C@H](CC(C)C)NC(=O)[C@H](CCN)NC(=O)[C@H](CCN)NC(=O)[C@H](Cc2ccccc2)NC(=O)[C@@H](CC(C)C)NC(=O)[C@H](CCN)NC1=O [compound 6431, 3(R)OH-nC9CO-Gly-cyc[L-Dab-L-Dab-D-Leu-L-Phe-L-Dab-L-Dab-L-Leu]] ({Decanoyl(3R-OH)}-G[Dab][Dab][dL]F[Dab][Dab]L; lactam 2-C) | 8 µg/mL (≈ 7.99 µM) | > 300 µM | 32 µg/mL (≈ 32 µM) | 16 µg/mL (≈ 16 µM) | 8 µg/mL (≈ 7.99 µM) | >32 µg/mL | 4 µg/mL (≈ 3.99 µM) | 8 µg/mL (≈ 7.99 µM) | 8 µg/mL (≈ 7.99 µM) | 32 µg/mL (≈ 32 µM) | 8 µg/mL (≈ 7.99 µM) | 2 µg/mL (≈ 2 µM) | 4 µg/mL (≈ 3.99 µM) | – |
| CCCCCCC[C@@H](O)CC(=O)N[C@H](CCN)C(=O)N[C@H]1CCNC(=O)[C@H](CC(C)C)NC(=O)[C@H](CCN)NC(=O)[C@H](CCN)NC(=O)[C@H](CC(C)C)NC(=O)[C@H](Cc2ccccc2)NC(=O)[C@H](CCN)NC1=O [compound 5002, 3(R)OH-nC9CO-D-Dab-cyc[L-Dab-L-Dab-L-Phe-L-Leu-L-Dab-L-Dab-L-Leu]] ({Decanoyl(3R-OH)}-[dDab][Dab][Dab]FL[Dab][Dab]L; lactam 2-C) | 8 µg/mL (≈ 7.66 µM) | > 300 µM | >32 µg/mL | 32 µg/mL (≈ 30.6 µM) | 16 µg/mL (≈ 15.3 µM) | 32 µg/mL (≈ 30.6 µM) | >32 µg/mL | 16 µg/mL (≈ 15.3 µM) | 4 µg/mL (≈ 3.83 µM) | >32 µg/mL | >32 µg/mL | 32 µg/mL (≈ 30.6 µM) | >32 µg/mL | – |
| CCCCCCC[C@@H](O)CC(=O)N[C@H](CCN)C(=O)N[C@H]1CCNC(=O)[C@H](CC(C)C)NC(=O)[C@H](CN)NC(=O)[C@H](CCN)NC(=O)[C@H](CC(C)C)NC(=O)[C@@H](Cc2ccccc2)NC(=O)[C@H](CCN)NC1=O [compound 987, 3(R)OH-nC9CO-D-Dab-cyc[L-Dab-L-Dab-D-Phe-L-Leu-L-Dab-L-Dap-L-Leu]] ({Decanoyl(3R-OH)}-[dDab][Dab][Dab][dF]L[Dab][Dap]L; lactam 2-C) | – | > 300 µM | 8 µg/mL (≈ 7.76 µM) | 8 µg/mL (≈ 7.76 µM) | 4 µg/mL (≈ 3.88 µM) | 16 µg/mL (≈ 15.5 µM) | 4 µg/mL (≈ 3.88 µM) | 4 µg/mL (≈ 3.88 µM) | 2 µg/mL (≈ 1.94 µM) | 1 µg/mL (≈ 0.971 µM) | 4 µg/mL (≈ 3.88 µM) | 16 µg/mL (≈ 15.5 µM) | 16 µg/mL (≈ 15.5 µM) | MIC P. aeruginosa GN_043, PmxR ([2]; polymyxin-resistant): 2 µg/mL (≈ 1.94 µM) |
